From patent US20250368625A1, “PIPERAZINES” (Grünenthal GmbH, priority 2024, published 2025) come the findings set out here.

T1 sequence (P31391 whole entry): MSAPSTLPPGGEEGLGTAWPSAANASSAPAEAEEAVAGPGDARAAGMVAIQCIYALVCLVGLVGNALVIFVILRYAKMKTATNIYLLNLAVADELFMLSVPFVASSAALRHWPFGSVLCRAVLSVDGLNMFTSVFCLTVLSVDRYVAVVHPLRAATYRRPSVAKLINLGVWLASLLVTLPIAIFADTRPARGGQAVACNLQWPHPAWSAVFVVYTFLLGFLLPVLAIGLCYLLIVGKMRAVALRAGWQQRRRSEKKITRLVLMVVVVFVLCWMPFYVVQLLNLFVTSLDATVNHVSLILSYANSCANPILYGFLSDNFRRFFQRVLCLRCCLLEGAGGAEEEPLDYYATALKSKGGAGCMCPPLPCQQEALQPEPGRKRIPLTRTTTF

This experiment concerns the target T1, human SSTR4 (Homo sapiens, UniProt P31391).
T1 construct: expressed in transfected cells; host or cells: CHO-K1
The experiment can be described thus: hSSTR4 cAMP assay (cAMP accumulation, LANCE Ultra cAMP kit, CHO-K1 human SSTR4 Gi cell line). Type of experiment: cell-based. As to conditions: functional agonism, forskolin 10 μM stimulated CHO-K1 human SSTR4 Gi cells, 30 min at 25° C., at least duplicate, averaged; read-out: hSSTR4 EC50. The procedure, abridged: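 CHO-K1 cells expressing human SSTR4 (Gi), pre-cultured 18-20 h or thawed and used directly, stimulated with 10 μM forskolin plus test agonist in concentration series, 30 min at 25° C. Lysate cAMP read by TR-FRET (Eu-cAMP tracer/ULight-anti-cAMP, 1 h, 25° C). Normalized to forskolin-only and forskolin+100 nM SST14 controls, 4-parameter fit; ≥duplicate, averaged.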
For orientation: cAMP levels reflect the balance of adenylyl cyclase and phosphodiesterase activity.
The EC50 is the concentration giving half of the maximal effect. Regarding `Cc1cccn2c(C(C)(C)NC(=O)[C@@H]3CNCCN3CC3(C(F)(F)F)CC3)ncc12` [SC-020, (S)-N-(2-(8-methylimidazo[1,5-a]pyridin-3-yl)propan-2-yl)-1-((1-(trifluoromethyl)cyclopropyl)methyl)piperazine-2-carboxamide], the EC50 came out at 0.27 nM.

As for `COCCN1CCNC[C@H]1C(=O)NC(C)(C)c1nn(C)c2ccccc12` [SC-101, (S)-1-(2-methoxyethyl)-N-(2-(1-methyl-1H-indazol-3-yl)propan-2-yl)piperazine-2-carboxamide], the EC50 was 5.9 nM.

Take `Cc1cccn2c(C(C)(C)NC(=O)[C@@H]3CN(Cc4cc(C(F)(F)F)nn4C)CCN3)ncc12` [SC-064, (S)-4-((1-methyl-3-(trifluoromethyl)-1H-pyrazol-5-yl)methyl)-N-(2-(8-methylimidazo[1,5-a]pyridin-3-yl)propan-2-yl)piperazine-2-carboxamide]: the EC50 came out at 13000 nM.

For the molecule `Cc1cccn2c(C(C)(C)NC(=O)[C@@H]3CN(Cc4cnn(C)c4)CCN3)ncc12` [SC-071, (S)-4-((1-methyl-1H-pyrazol-4-yl)methyl)-N-(2-(8-methylimidazo[1,5-a]pyridin-3-yl)propan-2-yl)piperazine-2-carboxamide], the EC50 was 540 nM.

Consider `CN1CCNC[C@H]1C(=O)NC(C)(C)c1n[nH]c2c(F)cccc12` [SC-129, (S)-N-(2-(7-fluoro-1H-indazol-3-yl)propan-2-yl)-1-methylpiperazine-2-carboxamide], for which the EC50 stood at 2.8 nM.

As to `Cn1nc(C(C)(C)NC(=O)[C@@H]2CNCCN2CC(F)(F)F)c2ccccc21` [SC-102, (S)-N-(2-(1-methyl-1H-indazol-3-yl)propan-2-yl)-1-(2,2,2-trifluoroethyl)piperazine-2-carboxamide], the EC50 is 0.84 nM.

As for `Cc1cccn2c(C(C)(C)NC(=O)[C@@H]3CNCCN3Cc3ccnc(C(F)(F)F)c3)ncc12` [SC-036, (S)-N-(2-(8-methylimidazo[1,5-a]pyridin-3-yl)propan-2-yl)-1-((2-(trifluoromethyl)pyridin-4-yl)methyl)piperazine-2-carboxamide], the EC50 is 0.09 nM.

Turning to `CN1CCN[C@H](C(=O)NC(C)(C)c2nn(C)c3ccccc23)C1` [SC-099, (S)-4-methyl-N-(2-(1-methyl-1H-indazol-3-yl)propan-2-yl)piperazine-2-carboxamide], the EC50 amounted to 21 nM.

Turning to `Cc1cccn2c(C(C)(C)NC(=O)[C@@H]3CN(Cc4ccnn4C)CCN3)ncc12` [SC-072, (S)-4-((1-methyl-1H-pyrazol-5-yl)methyl)-N-(2-(8-methylimidazo[1,5-a]pyridin-3-yl)propan-2-yl)piperazine-2-carboxamide], the concentration giving a half-maximal response (EC50) came out at 1200 nM.

Regarding `Cc1cccn2c(C(C)(C)NC(=O)C3CNCCN3Cc3ccncn3)ncc12` (racemic) [SC-008, rac-N-(2-(8-methylimidazo[1,5-a]pyridin-3-yl)propan-2-yl)-1-(pyrimidin-4-ylmethyl)piperazine-2-carboxamide], the EC50 was found to be 2.9 nM.

`Cc1ccc(CN2CCNC[C@H]2C(=O)NC(C)(C)c2ncc3c(C)cccn23)cn1` [SC-088, (S)-N-(2-(8-methylimidazo[1,5-a]pyridin-3-yl)propan-2-yl)-1-((6-methylpyridin-3-yl)methyl)piperazine-2-carboxamide]: the EC50 came out at 0.79 nM.

Consider `Cc1cccn2c(C(C)(C)NC(=O)[C@@H]3CN(CC(C)C)CCN3)ncc12` [SC-069, (S)-4-isobutyl-N-(2-(8-methylimidazo[1,5-a]pyridin-3-yl)propan-2-yl)piperazine-2-carboxamide], for which the EC50 amounted to 300 nM.

As for `Cc1cccc2c(C(C)(C)NC(=O)[C@@H]3CNCCN3C)noc12` [SC-124, (S)-1-methyl-N-(2-(7-methylbenzo[d]isoxazol-3-yl)propan-2-yl)piperazine-2-carboxamide], the concentration giving a half-maximal response (EC50) came out at 4.7 nM.

Regarding `Cc1cccn2c(C(C)(C)NC(=O)[C@@H]3CNCCN3C3CC(F)(F)C3)ncc12` [SC-021, (S)-1-(3,3-difluorocyclobutyl)-N-(2-(8-methylimidazo[1,5-a]pyridin-3-yl)propan-2-yl)piperazine-2-carboxamide], the EC50 was found to be 3.1 nM.

In the case of `COCCN1CCNC[C@H]1C(=O)NC(C)(C)c1ncc2c(C)cccn12` [SC-092, (S)-1-(2-methoxyethyl)-N-(2-(8-methylimidazo[1,5-a]pyridin-3-yl)propan-2-yl)piperazine-2-carboxamide], the concentration for a half-maximal effect (EC50) amounted to 1.1 nM.

`Cc1cccn2c(C(C)(C)NC(=O)[C@@H]3CN(C(=O)CC4CCOCC4)CCN3)ncc12` [SC-079, (S)-N-(2-(8-methylimidazo[1,5-a]pyridin-3-yl)propan-2-yl)-4-(2-(tetrahydro-2H-pyran-4-yl)acetyl)piperazine-2-carboxamide]: the 50% effective concentration (EC50) amounted to 15000 nM.

With `Cc1cccn2c(C(C)(C)NC(=O)[C@@H]3CNCCN3Cc3cnc(C(F)(F)F)nc3)ncc12` [SC-038, (S)-N-(2-(8-methylimidazo[1,5-a]pyridin-3-yl)propan-2-yl)-1-((2-(trifluoromethyl)pyrimidin-5-yl)methyl)piperazine-2-carboxamide], the 50% effective concentration (EC50) worked out at 0.6 nM.

Consider `Cc1cccn2c(C(C)(C)NC(=O)C3CNCCN3C(=O)C3CC3)ncc12` (racemic) [SC-012, rac-1-(cyclopropanecarbonyl)-N-(2-(8-methylimidazo[1,5-a]pyridin-3-yl)propan-2-yl)piperazine-2-carboxamide], for which the EC50 came out at 6600 nM.

As for `CN1CCNC[C@H]1C(=O)NC(C)(C)c1ncc2c(C(F)(F)F)cccn12` [SC-110, (S)-1-methyl-N-(2-(8-(trifluoromethyl)imidazo[1,5-a]pyridin-3-yl)propan-2-yl)piperazine-2-carboxamide], the 50% effective concentration (EC50) came to 36 nM.

Take `CN1CCNC[C@H]1C(=O)NC(C)(C)c1nnc2c(Cl)cccn12` [SC-125, (S)-N-(2-(8-chloro-[1,2,4]triazolo[4,3-a]pyridin-3-yl)propan-2-yl)-1-methylpiperazine-2-carboxamide]: the EC50 was determined as 1110 nM.

As for `Cc1cccn2c(C(C)(C)NC(=O)[C@@H]3CN(C)CCN3)nc(C)c12` [SC-116, (S)-N-(2-(1,8-dimethylimidazo[1,5-a]pyridin-3-yl)propan-2-yl)-4-methylpiperazine-2-carboxamide], the 50% effective concentration (EC50) was 32 nM.

Turning to `Cc1cccn2c(C(C)(C)NC(=O)[C@@H]3CN(C)CCN3)ncc12` [SC-043, (S)-4-methyl-N-(2-(8-methylimidazo[1,5-a]pyridin-3-yl)propan-2-yl)piperazine-2-carboxamide], the EC50 was 350 nM.

For the molecule `Cc1cccn2c(C(C)(C)NC(=O)[C@@H]3CN(Cc4cnco4)CCN3)ncc12` [SC-062, (S)-N-(2-(8-methylimidazo[1,5-a]pyridin-3-yl)propan-2-yl)-4-(oxazol-5-ylmethyl)piperazine-2-carboxamide], the concentration for a half-maximal effect (EC50) worked out at 220 nM.

Consider `Cc1cccn2c(C(C)(C)NC(=O)[C@@H]3CN(C)CCN3CC3CCOCC3)ncc12` [SC-047, (S)-4-methyl-N-(2-(8-methylimidazo[1,5-a]pyridin-3-yl)propan-2-yl)-1-((tetrahydro-2H-pyran-4-yl)methyl)piperazine-2-carboxamide], for which the EC50 was determined as 0.45 nM.

Regarding `Cc1cccn2c(C(C)(C)NC(=O)[C@@H]3CNCCN3Cc3cnccn3)ncc12` (racemic) [SC-007, rac-N-(2-(8-methylimidazo[1,5-a]pyridin-3-yl)propan-2-yl)-1-(pyrazin-2-ylmethyl)piperazine-2-carboxamide], the concentration for a half-maximal effect (EC50) came out at 2.2 nM.

For `Cc1cccn2c(C(C)(C)NC(=O)[C@@H]3CN(Cc4ccncc4)CCN3)ncc12` [SC-059, (S)-N-(2-(8-methylimidazo[1,5-a]pyridin-3-yl)propan-2-yl)-4-(pyridin-4-ylmethyl)piperazine-2-carboxamide], the EC50 is 130 nM.

`CC(C)(NC(=O)[C@@H]1CNCCN1CC1CC(F)(F)C1)c1ncc2c(C3CC3)cccn12` [SC-121, (S)-N-(2-(8-cyclopropylimidazo[1,5-a]pyridin-3-yl)propan-2-yl)-1-((3,3-difluorocyclobutyl)methyl)piperazine-2-carboxamide]: the 50% effective concentration (EC50) is 16 nM.

Consider `COCCN1CCN[C@H](C(=O)NC(C)(C)c2ncc3c(C)cccn23)C1` [SC-051, (S)-4-(2-methoxyethyl)-N-(2-(8-methylimidazo[1,5-a]pyridin-3-yl)propan-2-yl)piperazine-2-carboxamide], for which the concentration giving a half-maximal response (EC50) was 990 nM.

Consider `Cc1cccn2c(C(C)(C)NC(=O)C3CNCCN3Cc3ncccn3)ncc12` (racemic) [SC-001, rac-N-(2-(8-methylimidazo[1,5-a]pyridin-3-yl)propan-2-yl)-1-(pyrimidin-2-ylmethyl)piperazine-2-carboxamide], for which the half-maximal effective concentration (EC50) was determined as 13 nM.

In the case of `Cc1cccn2c(C(C)(C)NC(=O)[C@@H]3CNCCN3C(=O)C3CC(F)(F)C3)ncc12` (racemic) [SC-011, rac-1-(3,3-difluorocyclobutane-1-carbonyl)-N-(2-(8-methylimidazo[1,5-a]pyridin-3-yl)propan-2-yl)piperazine-2-carboxamide], the concentration for a half-maximal effect (EC50) was 1300 nM.

As for `Cc1cccn2c(C(C)(C)NC(=O)C3CNCCN3C(=O)C3COC3)ncc12` (racemic) [SC-013, rac-N-(2-(8-methylimidazo[1,5-a]pyridin-3-yl)propan-2-yl)-1-(oxetane-3-carbonyl)piperazine-2-carboxamide], the EC50 came out at 350 nM.

Consider `Cc1cccn2c(C(C)(C)NC(=O)[C@@H]3CNCCN3CC(C)(C)F)ncc12` [SC-018, (S)-1-(2-fluoro-2-methylpropyl)-N-(2-(8-methylimidazo[1,5-a]pyridin-3-yl)propan-2-yl)piperazine-2-carboxamide], for which the EC50 was determined as 1.2 nM.

For `Cc1cccn2c(C(C)(C)NC(=O)[C@@H]3CNCCN3CC3CC(F)(F)C3)ncc12` [SC-089, (S)-1-((3,3-difluorocyclobutyl)methyl)-N-(2-(8-methylimidazo[1,5-a]pyridin-3-yl)propan-2-yl)piperazine-2-carboxamide], the 50% effective concentration (EC50) was 0.55 nM.
